Experiments:
prolonged SE = settings: 45 minutes after onset; cited from earlier work
[1] = system: lithium-pilocarpine model of S.E.; assay: Lithium-pilocarpine model of status epilepticus, behavioral seizure scoring (Racine scale); type: in vivo, rat; settings: for termination of brief behavioral convulsions: postnatal 20-25 day male rats, drug i.p. at onset of first stage 3 convulsion, score 15 min after
Protocol: The ED50 was determined based on the fit of the sigmoidal dose-response curve.
Experiments were performed on male rats age 5-65 days. SE was induced using lithium pilocarpine. Brief SE was defined as the onset of stage 3 seizures. Prolonged SE was defined as 45 minutes of SE following the first stage 3 seizure.
Status epilepticus was induced in male Sprague Dawley rats (5-65 days old; Harlan Sprague Dawley, Indianapolis, Ind.) by intraperitoneal injection of lithium chloride (LiCl) at 127 mg/kg followed 15-20 hr later by scopolamine methylbromide (2 mg/kg) and then pilocarpine at 60 mg/kg. After pilocarpine injection, the rats were observed continuously for occurrence of behavioral seizures. Seizures were scored according to the Racine scale with slight modifications: 0-normal behavior; 1-immobile, staring, curled-up posture; 2-automatisms: repetitive blinking, chewing, headbobbing, vibrissae twitching, scratching, face-washing; 3-forelimb/hindlimb myoclonic jerking, head tremor; 4-rearing, whole body clonus; 5-loss of posture, rearing and falling. EEG recordings, have established that the cortical electrographic onset of SE corresponds to the onset of forelimb clonus, or stage 3 seizures. Therefore, diazepam or stiripentol was administered either at the onset of S3 seizures (brief SE) or 45 min after S3 seizure onset (prolonged SE). The seizure scores were taken continuously, but specifically 15 mins after the first S3 seizure, and 15 mins after treatment. The scores represented in the data were recorded 15 minutes following treatment. Solutions of lithium, scopolamine, pilocarpine and stiripentol were made fresh on the day of the experiments. Lithium, scopolamine and pilocarpine were dissolved in 0.9% saline. Stiripentol was dissolved in 20% propylene glycol and 80% ethanol. Diazepam was purchased commercially in a solution of 10% propylene glycol and 80% ethanol. All drugs were administered via intraperitoneal (i.p) injection.

[2] = system: tonic inhibition (GABAergic tonic current); assay: Brain slice whole-cell electrophysiology: tonic current in dentate granule cells; type: cell-based, rat; settings: for effect on tonic inhibition: 1 μM DZP, 100 μM STP
[3] = system: GABAAR subunit combinations; settings: STP 100 μM, GABA 0.3 μM, n=5-9, HEK-293T; cited from earlier work

Compound | fold decrease in efficacy at terminating prolonged SE (prolonged SE) | termination of brief behavioral convulsions [1] | pharmacoresistance following prolonged SE (shift of ED50 for seizure termination) ([1]; prolonged SE (45 min after stage 3 onset) vs brief SE) | effect on tonic inhibition [2] | potentiation of tonic current during prolonged SE ([2]; prolonged SE, DZP 1 μM, STP 100 μM, n=3-4) | effect on GABA current [3] | anticonvulsant effect in 60-65 compared to 20-25 day old rats ([1]; age comparison)
CN1C(=O)CN=C(c2ccccc2)c2cc(Cl)ccc21 [DZP, diazepam] | 9-10 fold | terminate brief behavioral convulsions | develops pharmacoresistance | increase tonic inhibition | less effective at potentiating tonic current | – | –
CC(C)(C)C(O)/C=C/c1ccc2c(c1)OCO2 (stereo not drawn) [STP, 1-(3,4-methylenedioxyphenyl)-4,4-dimethylpent-1-en-3-ol] | – | terminate brief behavioral convulsions | – | increase tonic inhibition | – | increases GABA (0.3 μM) current at all tested GABAAR subunit combinations | reduced

— patent US10183008B2, “Treatment of prolonged status epilepticus” (University of South Carolina, priority 2011, dated 2019)
